Experimental data: ChEMBL document CHEMBL1124790, “Angiotensin converting enzyme inhibitors. 10. Aryl sulfonamide substituted N-[1-carboxy-3-phenylpropyl]-L-alanyl-L-proline derivatives as novel antihypertensives” (J Med Chem, 1990)
“And” between values parts separate entries of the source, which are not always exact repeats. Equal entries are not always repeated. The source made the active and inactive calls. The rule behind the calls is not given here.

Columns and labels:
[1] = biological target: T1, Angiotensin-converting enzyme (Oryctolagus cuniculus, UniProt P12822); assay: In vitro inhibition of angiotensin I converting enzyme (ACE) in rabbit lung; assay type: tissue-based
T1 sequence (P12822 whole entry): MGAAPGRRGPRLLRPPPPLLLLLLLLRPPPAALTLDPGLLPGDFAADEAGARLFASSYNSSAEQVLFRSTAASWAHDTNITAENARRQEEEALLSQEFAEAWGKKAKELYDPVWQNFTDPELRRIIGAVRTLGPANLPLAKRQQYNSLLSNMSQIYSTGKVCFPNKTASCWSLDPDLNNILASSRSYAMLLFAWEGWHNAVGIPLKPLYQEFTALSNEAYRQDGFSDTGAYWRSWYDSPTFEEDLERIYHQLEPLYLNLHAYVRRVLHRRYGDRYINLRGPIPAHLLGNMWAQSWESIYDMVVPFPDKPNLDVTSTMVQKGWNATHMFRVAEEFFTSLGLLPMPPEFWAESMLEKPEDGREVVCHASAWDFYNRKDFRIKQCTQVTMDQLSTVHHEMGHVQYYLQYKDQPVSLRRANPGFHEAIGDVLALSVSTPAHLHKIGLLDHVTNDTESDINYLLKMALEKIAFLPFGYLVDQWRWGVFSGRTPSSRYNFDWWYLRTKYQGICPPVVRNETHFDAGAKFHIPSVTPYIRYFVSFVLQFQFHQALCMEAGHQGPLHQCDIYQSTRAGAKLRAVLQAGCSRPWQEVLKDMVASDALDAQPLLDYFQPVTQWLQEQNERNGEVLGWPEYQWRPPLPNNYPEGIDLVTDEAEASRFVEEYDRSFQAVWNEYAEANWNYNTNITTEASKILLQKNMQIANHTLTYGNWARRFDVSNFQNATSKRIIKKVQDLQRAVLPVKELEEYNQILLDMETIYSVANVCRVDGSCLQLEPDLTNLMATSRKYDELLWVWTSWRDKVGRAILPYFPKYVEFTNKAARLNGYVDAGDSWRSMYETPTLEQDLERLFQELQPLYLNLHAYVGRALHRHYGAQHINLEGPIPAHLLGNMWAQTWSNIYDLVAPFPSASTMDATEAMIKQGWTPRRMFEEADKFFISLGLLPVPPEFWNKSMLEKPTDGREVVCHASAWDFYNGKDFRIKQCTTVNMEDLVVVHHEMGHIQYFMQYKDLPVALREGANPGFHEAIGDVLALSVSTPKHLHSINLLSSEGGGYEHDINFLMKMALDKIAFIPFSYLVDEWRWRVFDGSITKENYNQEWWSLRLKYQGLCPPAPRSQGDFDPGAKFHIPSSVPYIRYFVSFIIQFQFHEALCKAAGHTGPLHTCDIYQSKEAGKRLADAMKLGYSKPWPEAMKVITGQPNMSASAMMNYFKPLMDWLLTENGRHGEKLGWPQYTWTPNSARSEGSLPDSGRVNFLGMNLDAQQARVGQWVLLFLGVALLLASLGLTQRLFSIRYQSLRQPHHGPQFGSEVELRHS

[2] = biological target: T2, Angiotensin-converting enzyme (Oryctolagus cuniculus) (UniProt P12822); assay: Time to inhibit maximum Angiotensin I converting enzyme in rabbit lung; assay type: functional, tissue-based
T2 sequence (whole entry): T1 sequence (P12822 whole entry)

[3] = biological target: T2, Angiotensin-converting enzyme (Oryctolagus cuniculus); assay: In vivo inhibition of Angiotensin I converting enzyme in rabbit lung after (po) administration of a dose of 10(mg/kg); assay type: organism-based
[4] = biological target: T2, Angiotensin-converting enzyme (Oryctolagus cuniculus); settings: Lung
[5] = test system: Angiotensin-converting enzyme (Sus scrofa); assay: Time to inhibit maximum Angiotensin I converting enzyme in Hog plasma
[6] = test system: Angiotensin-converting enzyme (Sus scrofa); assay: Time during which ACE inhibition is greater than or equal to 30% in Hog plasma
[7] = biological target: T2, Angiotensin-converting enzyme (Oryctolagus cuniculus); assay: Time during which Angiotensin I converting enzyme inhibition is greater than or equa to 30% in rabbit lung
[8] = biological target: T2, Angiotensin-converting enzyme (Oryctolagus cuniculus); assay: In vivo inhibition of Angiotensin I converting enzyme in rabbit lung after (iv) administration of a dose of 1.0(mg/kg); assay type: organism-based
[9] = biological target: T1, Angiotensin-converting enzyme; assay: In vitro inhibition of Angiotensin I converting enzyme in rabbit lung; assay type: tissue-based
[10] = biological target: T2, Angiotensin-converting enzyme (Oryctolagus cuniculus); assay: In vivo inhibition of Angiotensin I converting enzyme in rabbit lung at the dose of 10(mg/kg), po; assay type: organism-based
Rattus norvegicus [11] = assay: Percent change in K+ in fasted rats at the dose of 100 mg/kg (iv), 0-5 h; NA=Inactive; assay type: functional, organism-based; set-up: dose 100 mg/kg
Rattus norvegicus [12] = assay: Percent change in Na+in fasted rats at the dose of 100 mg/kg (po), 0-5 h; assay type: functional
Rattus norvegicus [13] = assay: Percent change in urinary volume in fasted rats at the dose of 100 mg/kg (po), 5-24 h; assay type: functional, Urine
[14] = biological target: T2, Angiotensin-converting enzyme (Oryctolagus cuniculus); assay: In vivo inhibition of angiotensin I converting enzyme (ACE) in rabbit lung after (ip) administration of a dose of 10(mg/kg); assay type: organism-based
[15] = biological target: T2, Angiotensin-converting enzyme (Oryctolagus cuniculus); assay: In vivo inhibition of angiotensin I converting enzyme(ACE) in rabbit lung at the dose of 10(mg/kg), po; assay type: organism-based
Rattus norvegicus [16] = assay: Percent change in urinary volume in fasted rats at the dose of 100 mg/kg (po), 0-5 h; assay type: functional, Urine
Rattus norvegicus [17] = assay: Percent change in K+ in fasted rats at the dose of 100 mg/kg (po), 5-24 h; assay type: functional
[18] = biological target: T2, Angiotensin-converting enzyme (Oryctolagus cuniculus); assay: Time to maximum inhibition of angiotensin I converting enzyme in rabbit lung; assay type: functional, tissue-based
Rattus norvegicus [19] = assay: Percent change in Na+in fasted rats at the dose of 100 mg/kg (po), 5-24 h; assay type: functional
[20] = biological target: T2, Angiotensin-converting enzyme (Oryctolagus cuniculus); assay: Time to inhibit maximum angiotensin I converting enzyme in rabbit lung; assay type: functional, tissue-based
Rattus norvegicus [21] = assay: Percent change in K+ in fasted rats at the dose of 100 mg/kg (po), 0-5 h; assay type: functional
[22] = biological target: T2, Angiotensin-converting enzyme (Oryctolagus cuniculus); assay: Time during which angiotensin I converting enzyme inhibition is greater than or equa to 30% in rabbit lung; assay type: functional, tissue-based
[23] = biological target: T2, Angiotensin-converting enzyme (Oryctolagus cuniculus); assay: In vivo inhibition of angiotensin I converting enzyme (ACE) in rabbit lung after (po) administration of a dose of 10(mg/kg); assay type: organism-based
Rattus norvegicus [24] = assay: Percent change in K+ in fasted rats at the dose of 30 mg/kg (ip), 0-5 h; NA=Inactive; assay type: functional, organism-based; set-up: dose 30 mg/kg
[25] = biological target: Angiotensin-converting enzyme (Homo sapiens) (UniProt P12821+Q9BYF1); settings: Sus scrofa; Plasma
Rattus norvegicus [26] = assay: Time duration was determined for the actioni (determination of MAP in po administration) in rat; assay type: functional
Rattus norvegicus [27] = assay: Antihypertensive activity was determined in spontaneously hypertensive rat at a dose of 3 mg/kg(po) administration; assay type: functional
Rattus norvegicus [28] = organism: Rattus norvegicus; assay: The onset hour was determined in rat; assay type: functional
Rattus norvegicus [29] = assay: Percent change in Na+in fasted rats at the dose of 25 mg/kg (iv), 5-24 h; assay type: functional
Rattus norvegicus [30] = assay: Percent change in urinary volume in fasted rats at the dose of 25 mg/kg (iv), 5-24 h; assay type: functional, Urine
Rattus norvegicus [31] = assay: Percent change in K+ in fasted rats at the dose of 25 mg/kg (iv), 5-24 h; assay type: functional
Rattus norvegicus [32] = assay: Time duration was determined for the actioni (determination of MAP in ip administration) in rat; assay type: functional
Rattus norvegicus [33] = assay: Antihypertensive activity was determined in spontaneously hypertensive rat at a dose of 100 mg/kg(ip) administration; assay type: functional
Rattus norvegicus [34] = assay: Percent change in K+ in fasted rats at the dose of 25 mg/kg (iv), 0-5 h; assay type: functional
[35] = biological target: T2, Angiotensin-converting enzyme (Oryctolagus cuniculus); assay: In vivo inhibition of angiotensin I converting enzyme (ACE) in rabbit lung after (iv) administration of a dose of 10(mg/kg); assay type: organism-based
Rattus norvegicus [36] = assay: Percent change in urinary volume in fasted rats at the dose of 25 mg/kg (iv), 0-5 h; assay type: functional, Urine
Rattus norvegicus [37] = assay: Percent change in Na+ in fasted rats at the dose of 25 mg/kg (iv), 0-5 h; assay type: functional
[38] = biological target: T2, Angiotensin-converting enzyme (Oryctolagus cuniculus); assay: In vivo inhibition of angiotensin I converting enzyme (ACE) in rabbit lung at the dose of 10(mg/kg), po; assay type: organism-based
Rattus norvegicus [39] = assay: Time duration was determined for the actioni (determination of MAP in case of oral administration) in rat; assay type: functional
Rattus norvegicus [40] = assay: Antihypertensive activity was determined in spontaneously hypertensive rat at a dose of 100 mg/kg(po) administration; assay type: functional; settings: 100 mg/kg
Rattus norvegicus [41] = assay: Percent change in K+ in fasted rats at the dose of 30 mg/kg (iv), 0-5 h; assay type: functional
Rattus norvegicus [42] = assay: Percent change in Na+ in fasted rats at the dose of 30 mg/kg (iv), 0-5 h; assay type: functional
Rattus norvegicus [43] = assay: Percent change in urinary volume in fasted rats at the dose of 30 mg/kg (iv), 0-5 h; assay type: functional, Urine

Chain of Angiotensin-converting enzyme (Homo sapiens) (P12821 whole entry, looked up): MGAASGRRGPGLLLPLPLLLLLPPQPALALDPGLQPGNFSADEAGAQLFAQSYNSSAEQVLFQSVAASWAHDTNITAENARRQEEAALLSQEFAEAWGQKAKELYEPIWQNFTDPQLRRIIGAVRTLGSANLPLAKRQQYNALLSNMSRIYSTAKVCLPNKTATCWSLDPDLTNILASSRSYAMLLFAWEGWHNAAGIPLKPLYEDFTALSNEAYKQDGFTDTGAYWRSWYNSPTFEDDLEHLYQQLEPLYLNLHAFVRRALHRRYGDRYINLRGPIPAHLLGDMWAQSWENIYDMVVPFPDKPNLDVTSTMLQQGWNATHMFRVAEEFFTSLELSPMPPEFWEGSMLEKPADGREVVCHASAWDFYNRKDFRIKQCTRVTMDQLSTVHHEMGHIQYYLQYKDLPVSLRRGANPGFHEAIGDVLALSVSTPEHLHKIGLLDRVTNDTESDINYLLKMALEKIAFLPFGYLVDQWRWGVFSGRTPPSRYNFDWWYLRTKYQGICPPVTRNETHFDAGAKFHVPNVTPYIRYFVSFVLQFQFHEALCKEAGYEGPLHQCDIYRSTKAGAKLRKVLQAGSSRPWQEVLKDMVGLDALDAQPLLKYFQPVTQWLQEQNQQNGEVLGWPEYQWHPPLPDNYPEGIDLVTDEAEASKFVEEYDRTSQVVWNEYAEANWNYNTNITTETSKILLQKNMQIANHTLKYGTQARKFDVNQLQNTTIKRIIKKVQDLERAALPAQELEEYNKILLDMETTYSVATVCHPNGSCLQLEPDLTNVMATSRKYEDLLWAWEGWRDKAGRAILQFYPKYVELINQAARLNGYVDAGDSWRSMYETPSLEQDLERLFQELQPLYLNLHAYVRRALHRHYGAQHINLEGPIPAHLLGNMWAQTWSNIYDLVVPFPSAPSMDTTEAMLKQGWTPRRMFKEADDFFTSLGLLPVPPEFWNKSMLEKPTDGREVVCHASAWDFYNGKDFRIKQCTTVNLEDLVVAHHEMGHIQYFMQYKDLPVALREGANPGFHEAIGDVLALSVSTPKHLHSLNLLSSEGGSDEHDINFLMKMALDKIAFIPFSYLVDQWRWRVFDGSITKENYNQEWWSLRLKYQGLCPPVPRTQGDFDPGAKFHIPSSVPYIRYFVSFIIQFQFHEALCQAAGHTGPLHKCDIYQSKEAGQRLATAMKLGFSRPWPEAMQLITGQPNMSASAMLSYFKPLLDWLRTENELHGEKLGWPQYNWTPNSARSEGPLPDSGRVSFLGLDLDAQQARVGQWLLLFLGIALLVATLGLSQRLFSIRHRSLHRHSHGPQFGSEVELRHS
Chain of Angiotensin-converting enzyme (Homo sapiens) (Q9BYF1 whole entry, looked up): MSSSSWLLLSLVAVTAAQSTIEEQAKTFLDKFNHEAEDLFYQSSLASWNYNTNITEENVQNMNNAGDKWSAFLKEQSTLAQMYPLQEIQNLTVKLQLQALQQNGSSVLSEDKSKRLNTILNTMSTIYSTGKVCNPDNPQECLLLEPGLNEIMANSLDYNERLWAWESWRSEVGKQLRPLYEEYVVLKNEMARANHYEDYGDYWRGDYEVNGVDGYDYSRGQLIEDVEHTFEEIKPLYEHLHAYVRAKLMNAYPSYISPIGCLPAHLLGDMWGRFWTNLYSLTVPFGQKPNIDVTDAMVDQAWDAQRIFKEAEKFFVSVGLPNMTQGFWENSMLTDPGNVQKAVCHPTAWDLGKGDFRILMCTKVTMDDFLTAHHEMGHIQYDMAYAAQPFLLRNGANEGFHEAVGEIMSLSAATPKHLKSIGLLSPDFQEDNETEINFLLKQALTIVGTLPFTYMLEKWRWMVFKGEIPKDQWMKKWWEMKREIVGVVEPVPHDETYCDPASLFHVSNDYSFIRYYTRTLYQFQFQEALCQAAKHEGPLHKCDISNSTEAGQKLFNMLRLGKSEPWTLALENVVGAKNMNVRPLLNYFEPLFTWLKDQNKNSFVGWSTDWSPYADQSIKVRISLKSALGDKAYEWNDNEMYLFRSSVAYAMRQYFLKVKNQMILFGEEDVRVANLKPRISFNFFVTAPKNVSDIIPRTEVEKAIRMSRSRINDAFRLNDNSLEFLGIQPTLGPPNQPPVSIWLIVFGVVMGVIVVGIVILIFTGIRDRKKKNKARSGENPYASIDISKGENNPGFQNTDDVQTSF

C[C@H](N[C@@H](CCc1ccccc1)C(=O)O)C(=O)N1C[C@@H](NS(=O)(=O)c2cc3c(cc2Cl)N=CNS3(=O)=O)C[C@H]1C(=O)O
IC50 [1]: 23 nM

C[C@H](CS)C(=O)N1CCC[C@H]1C(=O)O
Time to max. inhibition [2]: 0.7 h
inhibition [3]: 69%
Duration [4]: 2 h

C[C@H](N[C@@H](CCc1ccccc1)C(=O)O)C(=O)N1CCC[C@H]1C(=O)O
inhibition [3]: 74%

C[C@H](N[C@@H](CCc1ccccc1)C(=O)O)C(=O)N1CC(NNC(=O)c2ccc(Cl)c(S(N)(=O)=O)c2)C[C@H]1C(=O)O (some centres not stated)
Time to max. inhibition [5]: 0.3 h
Duration [6]: 0 h
Time to max. inhibition [2]: 0.3 h
Duration [7]: 3 h
inhibition [8]: 85%
IC50 [9]: 26 nM
inhibition [10]: 52%

C[C@H](N[C@@H](CCc1ccccc1)C(=O)O)C(=O)N1C(c2ccc(Cl)c(S(N)(=O)=O)c2)SC[C@H]1C(=O)O (some centres not stated)
Change (Rattus norvegicus [11]): inactive
IC50 [1]: 8 nM
Change (Rattus norvegicus [12]): 0%
Change (Rattus norvegicus [13]): -42%
inhibition [14]: 96%
inhibition [15]: 44%
Change (Rattus norvegicus [16]): -43%
Change (Rattus norvegicus [17]): -45%
Time to max. inhibition [18]: 0.3 h
Change (Rattus norvegicus [19]): -22%
Time to max. inhibition [20]: 0.3 h
Change (Rattus norvegicus [21]): 0%

C[C@H](N[C@@H](CCc1ccccc1)C(=O)O)C(=O)N1CC2(C[C@H]1C(=O)O)Nc1cc(Cl)c(S(N)(=O)=O)cc1S(=O)(=O)N2 (some centres not stated)
IC50 [1]: 85 nM
Duration [22]: 2.1 h
Time to max. inhibition [20]: 1 h
inhibition [23]: 54%
Change (Rattus norvegicus [24]): inactive

CCOC(=O)[C@H](CCc1ccccc1)N[C@@H](C)C(=O)N1CCC[C@H]1C(=O)O
Duration [25]: > 3 h
Duration (Rattus norvegicus [26]): 4 h
Time to max. inhibition [2]: 1 h
Duration [4]: > 4 h
Change in MAP (Rattus norvegicus [27]): -10%
Onset (Rattus norvegicus [28]): 1 h

C[C@H](N[C@@H](CCc1ccccc1)C(=O)O)C(=O)N1C[C@@H](NS(=O)(=O)c2cc3c(cc2Cl)NC=NS3(=O)=O)C[C@H]1C(=O)O
Change (Rattus norvegicus [29]): 0%
Change (Rattus norvegicus [30]): 61%
Change (Rattus norvegicus [31]): 67%
Duration (Rattus norvegicus [32]): 3 h
Change in MAP (Rattus norvegicus [33]): -11%
Change (Rattus norvegicus [34]): 40%
Duration [22]: 1.25 h
inhibition [35]: 78%
Change (Rattus norvegicus [36]): 0%
Time to max. inhibition [20]: 0.3 h
Change (Rattus norvegicus [37]): 0%
Onset (Rattus norvegicus [28]): <0.25 h

C[C@H](N[C@@H](CCc1ccccc1)C(=O)O)C(=O)N1CC(N(C)CCC2Nc3cc(Cl)c(S(N)(=O)=O)cc3S(=O)(=O)N2)C[C@H]1C(=O)O.Cl.Cl (some centres not stated)
inhibition [38]: 37%
IC50 [1]: 18 nM
Change (Rattus norvegicus [12]): 36%
Duration (Rattus norvegicus [32]): >24 h
Duration (Rattus norvegicus [39]): >42 h
Change in MAP (Rattus norvegicus [40]): -20% and -22%
Change (Rattus norvegicus [16]): 0%
Duration [22]: > 4 h and 3.7 h
inhibition [35]: 96%
Change (Rattus norvegicus [41]): 0%
Time to max. inhibition [20]: 2.7 h and 3 h
Change (Rattus norvegicus [42]): 0%
Change (Rattus norvegicus [21]): 40%
Onset (Rattus norvegicus [28]): 0.5 h
Change (Rattus norvegicus [43]): 0%
